Source: US20250017856A1, “CO-FORMULATION AND CO-DELIVERY OF IONIZABLE COLLOID FORMING DRUGS WITH NUCLEIC ACIDS” (THE GOVERNING COUNCIL OF THE UNIVERSITY OF TORONTO, priority 2023, published 2025)

Experiments:
[1] = Zeta potential (Malvern Zetasizer); format: physicochemical; settings: FxNP
Protocol: Zeta potential was measured by diluting FXNPs in phosphate to an ion concentration of 1 mM and using a Malvern Zetasizer Nano ZS instrument.

[2] = RNA encapsulation efficiency (modified Quant-iT RiboGreen assay) and loading; format: physicochemical; settings: for Encapsulation efficiency (%) / Small molecule drug mass % / siRNA mass %: FxNP; for siRNA encapsulation (in words): drugs that were not colloid formers
Source text: (§1) [NT] antisense (SEQ ID NO: 2): [NT] where “d” denotes a DNA base), siFLuc-2 (sense (SEQ ID NO: 3): [NT] antisense (SEQ ID NO: 4): [NT] where “d” denotes a DNA base and “m” indicates a 2'-O-methyl RNA base), sinLuc (sense (SEQ ID NO: 5): [NT] antisense SEQ ID NO: 6): [NT] where “d” denotes a DNA base), […]1 (sense (SEQ ID NO: 7): [NT] antisense (SEQ ID NO: 8): [NT] where “d” denotes a DNA base and “m” indicates a 2'-O-methyl RNA base), siNT (sense (SEQ ID NO: 9): [NT] antisense (SEQ ID NO: 10): [NT] where “d” denotes a DNA base and “m” indicates a 2'-O-methyl RNA base), mFLuc (EZ Cap Firefly Luciferase mRNA (5-moUTP), ApexBio), rRNA or RNA from Torula utilis yeast (T.U. RNA) was diluted in citrate buffer (50 or 25 mM, pH 4), malate buffer (25 mM, pH 4.0) or acetate buffer (25 mM, pH 4.0). A lipid/drug mix concentration of 5.5 mM was used with a total flow rate of 9 mL/min at a 3:1 ratio of aqueous to organic phase. […] After formulation, buffer exchange into PBS or Tris-buffered saline (TBS; pH 8.5) was performed using Amicon Ultra-4 centrifugal filters (molecular weight cut-off 10 kDa). Hydrodynamic diameter, polydispersity index (PDI), and scattering intensity were measured by dynamic light scattering (DLS) using a DynaPro Plate Reader II (Wyatt Technologies). The instrument was configured with a 60 mW 830 nm laser and a detector angle of 158°. A 25 μL sample of each formulation was pipetted into each well of a 384-well plate and measured with 20 acquisitions per sample at 25° C. […] Quant-iT RiboGreen reagent was added, and fluorescence intensity was quantified using a Tecan Infinite […] plate reader.

[3] = Hydrodynamic diameter and polydispersity index by dynamic light scattering; format: physicochemical; settings: FxNP
Source text: as §1

[4] = ionizable compound (fulvestrant analog); cited from earlier work

Row | SMILES | Zeta potential (mV) ([1]; siFLuc, DOPC) | Zeta potential (mV) ([1]; siFLuc, DSPC) | Zeta potential (mV) ([1]; sinLuc, DOPC) | Encapsulation efficiency (%) ([2]; siFLuc, DOPC) | Small molecule drug mass % ([2]; siFLuc, DOPC) [%] | siRNA mass % ([2]; siFLuc, DOPC) [%] | Encapsulation efficiency (%) ([2]; siFLuc, DSPC) | Small molecule drug mass % ([2]; siFLuc, DSPC) [%] | siRNA mass % ([2]; siFLuc, DSPC) [%] | Encapsulation efficiency (%) ([2]; sinLuc, DOPC) | Small molecule drug mass % ([2]; sinLuc, DOPC) [%] | siRNA mass % ([2]; sinLuc, DOPC) [%] | Hydrodynamic diameter (nm) ([3]; siFLuc, DOPC) | PDI ([3]; siFLuc, DOPC) | Hydrodynamic diameter (nm) ([3]; siFLuc, DSPC) | PDI ([3]; siFLuc, DSPC) | Hydrodynamic diameter (nm) ([3]; sinLuc, DOPC) | PDI ([3]; sinLuc, DOPC) | pKa [4] | siRNA encapsulation (in words) [2] | also measured
1 | CN(C)CCCN1c2ccccc2Sc2ccc(Cl)cc21 [chlorpromazine, reference compound] | – | – | – | – | – | – | – | – | – | – | – | – | – | – | – | – | – | – | – | did not encapsulate siRNA in nanoparticles or encapsulated siRNA at low efficiency | –
2 | CC[C@H]1CN2CCc3cc(OC)c(OC)cc3[C@@H]2C[C@@H]1C[C@H]1NCCc2cc(OC)c(OC)cc21 [emetine, reference compound] | – | – | – | – | – | – | – | – | – | – | – | – | – | – | – | – | – | – | – | did not encapsulate siRNA in nanoparticles or encapsulated siRNA at low efficiency | –
3 | CNCCC=C1c2ccccc2CCc2ccccc21 [nortriptyline, reference compound] | – | – | – | – | – | – | – | – | – | – | – | – | – | – | – | – | – | – | – | did not encapsulate siRNA in nanoparticles or encapsulated siRNA at low efficiency | –
4 | CN[C@H]1CC[C@@H](c2ccc(Cl)c(Cl)c2)c2ccccc21 [sertraline, reference compound] | – | – | – | – | – | – | – | – | – | – | – | – | – | – | – | – | – | – | – | did not encapsulate siRNA in nanoparticles or encapsulated siRNA at low efficiency | –

Now from value to compound, other results behind:

Row | Zeta potential (mV) ([1]; siFLuc, DOPC) | Zeta potential (mV) ([1]; siFLuc, DSPC) | Zeta potential (mV) ([1]; sinLuc, DOPC) | Encapsulation efficiency (%) ([2]; siFLuc, DOPC) | Small molecule drug mass % ([2]; siFLuc, DOPC) [%] | siRNA mass % ([2]; siFLuc, DOPC) [%] | Encapsulation efficiency (%) ([2]; siFLuc, DSPC) | Small molecule drug mass % ([2]; siFLuc, DSPC) [%] | siRNA mass % ([2]; siFLuc, DSPC) [%] | Encapsulation efficiency (%) ([2]; sinLuc, DOPC) | Small molecule drug mass % ([2]; sinLuc, DOPC) [%] | siRNA mass % ([2]; sinLuc, DOPC) [%] | Hydrodynamic diameter (nm) ([3]; siFLuc, DOPC) | PDI ([3]; siFLuc, DOPC) | Hydrodynamic diameter (nm) ([3]; siFLuc, DSPC) | PDI ([3]; siFLuc, DSPC) | Hydrodynamic diameter (nm) ([3]; sinLuc, DOPC) | PDI ([3]; sinLuc, DOPC) | SMILES | pKa [4] | siRNA encapsulation (in words) [2] | also measured
5 | −11.27 | −12.97 | −11.80 | 58.7 | 56.7 | 3.0 | 69.9 | 56.3 | 3.6 | 79.5 | 56.1 | 4.0 | 245.9 | 0.035 | 149.3 | 0.022 | 243.5 | 0.014 | CC12CCC3c4ccc(O)cc4CC(CCCCCCCCCS(=O)(CCCC(F)(F)C(F)(F)F)=NC(=O)CN4CCOCC4)C3C1CCC2O (stereo not shown) [7a] | 5.1 | – | –
6 | −7.61 | −12.50 | −11.53 | 81.7 | 55.4 | 4.2 | 85.5 | 55.2 | 4.4 | 84.9 | 55.3 | 4.4 | 289.8 | 0.003 | 141.0 | 0.019 | 296.2 | 0.012 | CC12CCC3c4ccc(O)cc4CC(CCCCCCCCCS(=O)(CCCC(F)(F)C(F)(F)F)=NC(=O)Cn4ccnc4)C3C1CCC2O (stereo not shown) [7b] | 5.4 | – | –
7 | −8.02 | −10.15 | −10.97 | 87.5 | 55.7 | 4.4 | 89.3 | 55.6 | 4.5 | 73.7 | 56.1 | 3.8 | 159.4 | 0.043 | 136.0 | 0.017 | 180.1 | 0.072 | CC12CCC3c4ccc(O)cc4CC(CCCCCCCCCS(=O)(CCCC(F)(F)C(F)(F)F)=NC(=O)CCn4ccnc4)C3C1CCC2O (stereo not shown) [7c] | 5.5 | – | –
8 | −8.00 | −11.83 | −14.27 | 80.3 | 56.5 | 4.0 | 88.3 | 56.3 | 4.4 | 76.4 | 56.6 | 3.8 | 199.0 | 0.066 | 154.9 | 0.036 | 224.8 | 0.093 | CC12CCC3c4ccc(O)cc4CC(CCCCCCCCCS(=O)(CCCC(F)(F)C(F)(F)F)=NC(=O)CCN4CCOCC4)C3C1CCC2O (stereo not shown) [7d] | 5.7 | – | –
9 | −2.88 | −11.13 | −7.23 | 90.8 | 55.7 | 4.6 | 90.8 | 55.7 | 4.6 | 89.7 | 55.7 | 4.5 | 214.2 | 0.068 | 132.6 | 0.041 | 215.1 | 0.066 | CC12CCC3c4ccc(O)cc4CC(CCCCCCCCCS(=O)(CCCC(F)(F)C(F)(F)F)=NC(=O)CN4CCCCC4)C3C1CCC2O (stereo not shown) [7e] | 6.4 | – | –
10 | −5.09 | −10.01 | −3.97 | 91.3 | 54.3 | 4.8 | 94.8 | 54.2 | 4.9 | 92.4 | 54.3 | 4.8 | 155.5 | 0.041 | 147.8 | 0.075 | 161.0 | 0.039 | CN(C)CC(=O)N=S(=O)(CCCCCCCCCC1Cc2cc(O)ccc2C2CCC3(C)C(O)CCC3C12)CCCC(F)(F)C(F)(F)F (stereo not shown) [7f] | 7.0 | – | nanoparticle formation with RNA cargos of varying molecular weight ([2]; siRNA, T.U. RNA, rRNA, mRNA): form nanoparticles encapsulating a range of RNA cargos
11 | 3.39 | −4.92 | 0.01 | 96.6 | 56.0 | 4.8 | 94.7 | 56.0 | 4.7 | 94.9 | 56.0 | 4.7 | 186.2 | 0.022 | 170.8 | 0.076 | 181.8 | 0.042 | CC12CCC3c4ccc(O)cc4CC(CCCCCCCCCS(=O)(CCCC(F)(F)C(F)(F)F)=NC(=O)CCN4CCCCC4)C3C1CCC2O (stereo not shown) [7g] | 7.3 | – | –
12 | – | −7.54 | – | – | – | – | 86.4 | 55.3 | 4.4 | – | – | – | – | – | 160.5 | 0.183 | – | – | CC12CCC3c4ccc(O)cc4CC(CCCCCCCCCS(=O)(CCCC(F)(F)C(F)(F)F)=NC(=O)CN4CCCC4)C3C1CCC2O (stereo not shown) [7h] | 7.3 | – | –
13 | – | −2.05 | – | – | – | – | 87.6 | 54.9 | 4.5 | – | – | – | – | – | 539.2 | Multimodal | – | – | CC12CCC3c4ccc(O)cc4CC(CCCCCCCCCS(=O)(CCCC(F)(F)C(F)(F)F)=NC(=O)C[N+](C)(C)C)C3C1CCC2O (stereo not shown) [7l] | – | – | –
